Reference: patent US6451801B1, “Compounds and methods for treatment of asthma, allergy and inflammatory disorders” (UCB, S.A., priority 1999, dated 2002)
Read-outs that look alike come from different tables or passages of the source.

Tests used:
human cloned H1 receptor = target: T1, human cloned H1 receptor (Homo sapiens, UniProt P35367); assay: CHO-K1 H1R binding assay; details: 3H-pyrilamine 2 nM, CHO-K1 membranes, 3 hours at 37° C.; read-out: CHOH1 K1
T1 construct: expressed in transfected cells; host or cells: CHO-K1
Description: CHO-K1 cells expressing the human cloned H1 receptor are grown to confluence in tissue culture dishes. Cells are harvested using D-PBS buffer (JRH Biosciences), kept at 4° C., centrifuging to pellet cells (4° C., 500 g, 10 min). The final cell pellet is homogenized and resuspended using Tris/sucrose buffer (20 mM Tris, 250 mM sucrose, pH 7.4 at 4° C.). Aliquots of the membrane preparation are stored at −70° C.
On the day of assay, the membrane preparation is thawed and centrifuged (TLA100.3 rotor, 4° C., 15 min, 23,000 rpm). The pellet is resuspended in Tris/sucrose buffer initially and then diluted further as necessary using assay buffer A (50 mM Na/KPO4, 2 mM MgCl2, 0.5% (w/v) BSA, pH 7.5).
For the binding assay, the membrane preparation, test compound and ^3H-pyrilamine (2 nM final) in buffer A with 1% (v/v) DMSO final are incubated in a 96-well polypropylene plate for 3 hours at 37° C. Non-specific binding is determined in the presence of 10 μM pyrilamine. A 96-well harvester (Packard) is used to harvest the 96-well plate onto a GF/B filter plate pre-treated with 0.1% (v/v) PEI. The plate is counted in a Packard Topcounter after adding Microscint 20 (Packard) scintillation fluid. The Ki for each compound at the histamine H1 receptor is then calculated from these counts.

[1] = target: T2, human 5-lipoxygenase enzyme (Homo sapiens, UniProt P09917); assay: Inhibition of LTB4 production in human whole blood; assay type: cell-based
T2 construct: endogenous in cells; host or cells: human whole blood (leukocytes) stimulated with A23187
T2 sequence (P09917 1-674): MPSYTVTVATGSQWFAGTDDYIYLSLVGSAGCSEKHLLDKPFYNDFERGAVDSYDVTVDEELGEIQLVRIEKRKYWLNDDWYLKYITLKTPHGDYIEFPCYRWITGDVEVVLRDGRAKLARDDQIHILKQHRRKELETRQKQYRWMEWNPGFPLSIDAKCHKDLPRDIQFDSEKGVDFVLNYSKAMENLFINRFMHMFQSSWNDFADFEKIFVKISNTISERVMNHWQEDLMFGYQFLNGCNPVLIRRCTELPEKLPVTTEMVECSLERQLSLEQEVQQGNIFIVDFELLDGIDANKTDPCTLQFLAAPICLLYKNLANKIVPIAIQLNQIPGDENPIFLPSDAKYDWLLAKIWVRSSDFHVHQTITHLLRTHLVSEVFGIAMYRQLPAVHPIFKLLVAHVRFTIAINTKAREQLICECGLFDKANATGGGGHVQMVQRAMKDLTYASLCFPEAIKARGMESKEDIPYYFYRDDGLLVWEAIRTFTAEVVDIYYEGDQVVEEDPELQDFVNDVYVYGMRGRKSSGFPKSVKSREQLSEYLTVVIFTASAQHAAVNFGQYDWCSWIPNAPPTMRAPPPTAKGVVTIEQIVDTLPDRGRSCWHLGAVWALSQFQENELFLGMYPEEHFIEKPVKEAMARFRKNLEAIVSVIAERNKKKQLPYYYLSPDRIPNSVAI
Description: This assay examines the ability of a compound to inhibit leukotriene B4 production from human blood stimulated with calcium ionophore. As this production of leukotriene B4 is mediated via the activation of the 5-lipoxygenase enzyme, this assay is predictive of a compound's ability to inhibit the human 5-lipoxygenase enzyme.
The procedure for the assay is as follows. Blood is drawn from normal human volunteers into tubes containing heparin. 1 ml of the heparinized blood is pipetted into a 1.5 ml polypropylene tube. To this sample is added either different concentrations of the test compound (5 μl) dissolved in DMSO or 5 μl of DMSO as a vehicle control. These samples are incubated in a water bath, at 37° C. for 15 min. 5 μl of the calcium ionophore A23187 (at a final concentration of 50 μM) is then added to each sample, which is vortexed and placed back in the water bath for 30 min. The samples are then centrifuged at 2500 rpm for 10 min. at 4° C. 50 μl of the supernatant is transferred into pre-cooled Eppendorf tubes containing 950 μl of enzyme immunoassay (EIA) buffer. A commercially available EIA kit (Cayman Chemical Co., Ann Arbor, Mich., USA) is used to subsequently measure the LTB4 production in the samples. The LTB4 levels produced in the vehicle control sample is then compared to those in which the test compound has been added. From this a percent inhibition of LTB4 production by each concentration of test compound is calculated and the IC50 for inhibition of LTB4 production for each test compound is determined.

[2] = system: histamine-induced bronchoconstriction; assay: Antihistaminergic activity in vivo (histamine-induced bronchoconstriction); details: guinea pig, oral
Description: Male, Hartley guinea pigs are obtained from Charles River Labs at a body weight of 350 -400 grams. Inhibition of histamine activity is measured by the method of Konzett and Rössler (Naonyn-Schmiedebergs Arch. Exp. Path. Pharmakol. 195, 71-74 (1940). Anaethetized guinea pigs are subjected to artificial ventilation. The endotracheal pressure is recorded. Bronchoconstriction is induced by successive intravenous injections of histamine. The test compounds are administered orally in a 1% methocellulose suspension at set timepoints prior to the administration of histamine.
The results (Table 2) show the percent inhibition of histamine-induced bronchoconstriction by selected compounds at multiple time points post oral dosing. 50% inhibition or greater is considered significant.

5-lipoxygenase = assay: 5-Lipoxygenase inhibitory activity in vivo; details: guinea pig, oral, 2 mg/kg
Description: Male, Hartley guinea pigs are obtained from Charles River Labs at a body weight of 350-400 grams. Compounds are prepared at a volume of [1-2 mg/ml] in 1% methocellulose for oral dosing. Animals are separated into groups of five (5). Each assay includes a control group dosed with vehicle. Each group of animals is dosed with either vehicle or compound by oral gavage. Animals are allowed to rest for one, three, or six hours after dosing. Control animals are allowed to rest for three hours. At the appropriate times, the animals are anesthetized with Urethane at 1.5 g/kg, ip. Blood is drawn into a heparinized syringe via cardiac puncture. Blood (0.5 ml) is aliquoted into separately-labeled 1.5 ml eppendorf tubes. Each sample is loaded with 5 μl of [15 mM] Arachidonic Acid, and placed in a 37° C. water bath for five minutes. After five minutes, the blood is stimulated with 5 μl of [5 mM] A23187 (Calcium Ionophore) and retained in the water bath for an additional 30 minutes. After the thirty minutes, the blood samples are removed from the water bath and centrifuged at 14,000 rpm for 2 minutes. Plasma is diluted to EIA buffer and an EIA is performed following manufacturer instructions (Cayman Chemical Co., Ann Arbor, Mich., USA). The results (Table 3) show the percent inhibition of 5-lipoxygenase by selected compounds at multiple time points post oral dosing. 50% inhibition or greater is considered significant.

15-lipoxygenase = target: T3, 15-lipoxygenase (Oryctolagus cuniculus, UniProt P12530); assay: Inhibition of 15-lipoxygenase (15-HETE production); assay type: biochemical; details: 15-lipoxygenase from rabbit peritoneal polymorphonuclear leukocytes, 5 min at 37° C.
T3 construct: from tissue; host or cells: rabbit peritoneal polymorphonuclear leukocytes
T3 sequence (P12530 1-663): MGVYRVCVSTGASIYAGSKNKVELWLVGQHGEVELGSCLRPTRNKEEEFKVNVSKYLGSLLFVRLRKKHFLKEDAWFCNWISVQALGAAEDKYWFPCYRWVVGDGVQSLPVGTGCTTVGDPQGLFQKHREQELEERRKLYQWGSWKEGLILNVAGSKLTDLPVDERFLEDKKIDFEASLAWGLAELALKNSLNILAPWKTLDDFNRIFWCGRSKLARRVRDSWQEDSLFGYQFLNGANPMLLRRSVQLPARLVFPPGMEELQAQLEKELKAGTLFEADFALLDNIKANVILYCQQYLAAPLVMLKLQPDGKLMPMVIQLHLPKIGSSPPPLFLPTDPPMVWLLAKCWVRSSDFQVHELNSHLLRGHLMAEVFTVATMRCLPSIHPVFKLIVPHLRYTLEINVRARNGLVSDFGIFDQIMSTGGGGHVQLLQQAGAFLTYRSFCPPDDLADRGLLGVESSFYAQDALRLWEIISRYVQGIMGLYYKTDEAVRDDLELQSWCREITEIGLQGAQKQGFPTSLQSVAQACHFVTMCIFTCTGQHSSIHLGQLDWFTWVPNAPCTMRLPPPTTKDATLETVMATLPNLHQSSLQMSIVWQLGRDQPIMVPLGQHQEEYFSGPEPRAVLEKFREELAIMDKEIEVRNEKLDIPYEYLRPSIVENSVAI
Text: This assay examines the ability of a compound to inhibit production of 15-hydroxy-5, 8, 11, 13-eicosatetraenoic acid (15-HETE) via the action of 15-lipoxygenase on arachidonic acid. 15-lipoxygenase was purified from rabbit peritoneal polymorphonuclear leukocytes. The enzyme is responsible for the conversion of arachidonic acid (via oxygenation at carbon 15 of arachidonic acid) to 15-hydroperoxy-5, 8, 11, 13-eicosatetraenoic acid (15-HPETE), which then reduced to 15-hydroxy-5, 8, 11, 13-eicosatetraenoic acid (15-HETE).
The procedure for the assay is as follows. Arachidonic acid is co-incubated with […] for 5 min at 37° C. in the presence or absence of different concentrations of test compound (10^−8 to 10^−5 M). Production of 15-HETE in each sample is then measured by radioimmunoassay. The 15-HETE levels produced in the vehicle control sample are then compared to those in which the test compound has been added.

[3] = human whole blood, calcium ionophore A23187 50 μM, LTB4 by EIA, read-out: HWB IC50
[4] = Cavia porcellus, 2 mg/kg, 3 hrs
[5] = Cavia porcellus, 2 mg/kg, 6 hrs

T1 sequence (P35367 whole entry): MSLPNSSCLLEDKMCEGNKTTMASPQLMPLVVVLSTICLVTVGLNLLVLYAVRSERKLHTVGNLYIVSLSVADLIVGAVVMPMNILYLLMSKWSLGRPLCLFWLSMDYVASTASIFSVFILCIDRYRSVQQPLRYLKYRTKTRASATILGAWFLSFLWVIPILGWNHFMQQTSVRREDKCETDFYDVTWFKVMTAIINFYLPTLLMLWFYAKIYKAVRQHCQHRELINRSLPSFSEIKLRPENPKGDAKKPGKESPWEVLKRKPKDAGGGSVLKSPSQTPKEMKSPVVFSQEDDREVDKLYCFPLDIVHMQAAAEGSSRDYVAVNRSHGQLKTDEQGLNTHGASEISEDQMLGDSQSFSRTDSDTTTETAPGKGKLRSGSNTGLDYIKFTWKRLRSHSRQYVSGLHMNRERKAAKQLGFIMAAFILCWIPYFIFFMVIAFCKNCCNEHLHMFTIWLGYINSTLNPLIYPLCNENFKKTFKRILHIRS

Row | Ki (human cloned H1 receptor) | IC50 [1, 3] | IC50 (15-lipoxygenase) | SMILES | inhibition in vivo at 2 mg/kg [2, 4] | inhibition in vivo at 2 mg/kg [2, 5] | % inhibition of histamine-induced bronchoconstriction ([2]; 2 mg/kg, 6 hrs) | % inhibition of 5-lipoxygenase (5-lipoxygenase; 1 hour) | % inhibition of 5-lipoxygenase (5-lipoxygenase; 3 hours) | inhibition in vivo at 5 mg/kg ([2]; Cavia porcellus, 5 mg/kg, 3 hrs) | % inhibition of 5-lipoxygenase (5-lipoxygenase; 6 hours) | IC50 [1]
1 |  | 105 nM | 61 nM | NC(=O)N(O)CCC#Cc1ccc(OCCCN2CCN([C@H](c3ccccc3)c3ccc(Cl)cc3)CC2)cc1 [Compound 52, N-{4-[4-(3-{4-[(1R)(4-chlorophenyl)phenyl-methyl]piperazinyt}propoxy)phenyl]but-3-ynyl}amino-N-hydroxyamide] | 69% |  |  |  | 61% |  |  | 
2 | 58 nM | 251 nM |  | NC(=O)N(O)CCC#Cc1ccc(OCCN2CCN(C(c3ccc(F)cc3)c3ccc(F)cc3)CC2)cc1[N+](=O)[O-] [Compound 87, N-{4-[4-(2-{4-[bis(4-fluorophenyl)methyl]-1-piperazinyl}ethoxy)-2-nitrophenyl]-3-butynyl)-N-hydroxyurea] | 66% | 73% |  | 70% |  |  | 94% | 
3 | 135 nM | 85 nM | 46 nM | NC(=O)c1cc(C#CCCN(O)C(N)=O)ccc1OCCN1CCN([C@H](c2ccccc2)c2ccc(Cl)cc2)CC1 [Compound 35, 2-(2-{4-[(1R) (4-chlorophenyl)phenyl-methyl]piperazinyl}ethoxy)-5-[4-(amino-hydroxycarbonylamino)but-1-ynyl]benzamide] | 72% | 88% |  | 87% | 97% |  |  | 
4 |  | 263 nM | 170 nM | NC(=O)N(O)CCC#Cc1ccc(OCCN2CCC(=C3c4ccc(Cl)cc4CCc4cccnc43)CC2)cc1 [Compound 32] | 65% |  |  | 88% |  |  |  | 
5 | 10 nM | 287 nM |  | NC(=O)N(O)CCC#Cc1cccc(OCCN2CCN([C@H](c3ccccc3)c3ccc(Cl)cc3)CC2)c1 [Compound 23, N-{4-[3-(2-{4-[(1R)(4-chlorophenyl)phenylmethyl]piperazinyl}ethoxy)phenyl]but-3-ynyl}amino-N-hydroxyamide] | 80% | 92% |  | 80% |  |  |  | 

The remaining lines, values behind:

Row | SMILES | Ki (human cloned H1 receptor) | IC50 [1, 3] | IC50 (15-lipoxygenase) | inhibition in vivo at 2 mg/kg [2, 4] | inhibition in vivo at 2 mg/kg [2, 5] | % inhibition of histamine-induced bronchoconstriction ([2]; 2 mg/kg, 6 hrs) | % inhibition of 5-lipoxygenase (5-lipoxygenase; 1 hour) | % inhibition of 5-lipoxygenase (5-lipoxygenase; 3 hours) | inhibition in vivo at 5 mg/kg ([2]; Cavia porcellus, 5 mg/kg, 3 hrs) | % inhibition of 5-lipoxygenase (5-lipoxygenase; 6 hours) | IC50 [1]
6 | NC(=O)N(O)CCC#Cc1ccc(CN2CCN([C@H](c3ccccc3)c3ccc(Cl)cc3)CC2)o1 [Compound 27, N-{4-[5-({4-[(1R) (4-chlorophenyl)phenylmethyl]piperazinyl}methyl)(2-furyl)]but-3-ynyl}amino-N-hydroxyamide] | 150 nM | 650 nM |  | 86% | 91% | 91% | 88% |  |  |  | 
7 | NC(=O)N(O)Cc1ccc(OCCN2CCN([C@H](c3ccccc3)c3ccc(Cl)cc3)CC2)cc1 [Compound 1, N-{[4-(2-{4-[(1R) (4-chlorophenyl)phenylmethyl]piperazinyl}ethoxy)phenyl]methyl} amino-N-hydroxyamide] | 24 nM | 1520 nM | 1300 nM |  |  |  | 62% |  | 56% |  | 
8 | NC(=O)N(O)CCC#Cc1ccc(OCCCCN2CCN(C(c3ccc(F)cc3)c3ccc(F)cc3)CC2)cc1 [Compound 80, amino-N-{4-[4-(4-{4-[bis(4-fluorophenyl)methyl]piperazinyl}butoxy)phenyl]but-3-ynyl}-N-hydroxyamide] |  | 78 nM | 110 nM | 98% |  |  |  | 73% |  | 88% | 
9 | NC(=O)N(O)CCC#Cc1ccc(CN2CCN(C(c3ccc(F)cc3)c3ccc(F)cc3)CC2)o1 [Compound 34, amino-N-{4-[5-({4-[bis (4-fluorophenyl)methyl]piperazinyl}methyl) (2-furyl)]but-3-ynyl}-N-hydroxyamide] | 550 nM |  |  | 81% | 89% |  |  | 38% |  |  | 142 nM
